The results in this text go back to PubChem BioAssay (NCI).

Some test systems named below: OVCAR-5 ovarian; RXF 393 renal; NCI-H522 lung; OVCAR-4 ovarian; HCC-2998 colon; EKVX NSCLC; NCI-H226 lung; NCI-H23 lung; DU-145 prostate.
Experiment in all cases: DTP human tumour cell line panel, 48 h

Structures are written as SMILES.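 Interpolation was linear, between the two tested concentrations surrounding the appropriate level; five concentrations were tested over 48 hours in 96-well plates. Here, GI50 denotes the concentration required for 50% inhibition of growth. TGI is the concentration that stops growth completely.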 Bounds are passed on as bounds.

Regarding `COc1ccc2nc3cc(Cl)ccc3c(SCC(=O)Nc3ccccc3-c3ccccc3NC(=O)CSc3c4ccc(Cl)cc4nc4ccc(OC)cc34)c2c1`, the TGI with OVCAR-5 ovarian, with RXF 393 renal, in the test on NCI-H522 lung, with OVCAR-4 ovarian, in the test with HCC-2998 colon and in the test on EKVX NSCLC was > 100 µM in each case. Further, the TGI in the test on NCI-H226 lung and with NCI-H23 lung was > 100 µM in each case.
Take `CC1(C)CC2CC(CC(C)(C)C2=O)C1=O`: the TGI in the test on OVCAR-5 ovarian, in the test on RXF 393 renal, with OVCAR-4 ovarian, with HCC-2998 colon, in the test on EKVX NSCLC and in the test with NCI-H23 lung was > 100 µM in each case.
Take `COc1cccc(NC(=O)CC(=O)N2N=C(N3c4ccccc4Sc4ccccc43)CC2c2ccccc2)c1` (stereo not given): the TGI in the test with OVCAR-5 ovarian, in the test with RXF 393 renal, in the test with OVCAR-4 ovarian, in the test with HCC-2998 colon, with EKVX NSCLC and with NCI-H226 lung was > 100 µM in each case. In addition, the TGI (as a rule, the concentration giving total growth inhibition) in the test on NCI-H23 lung is > 100 µM.
In the case of `O=C(N/C(=C\c1ccc(/C=C(\NC(=O)c2ccccc2)c2nc3ccccc3[nH]2)cc1)c1nc2ccccc2[nH]1)c1ccccc1`, the TGI in the test with OVCAR-5 ovarian, with RXF 393 renal, with NCI-H522 lung, in the test on OVCAR-4 ovarian, with HCC-2998 colon and in the test on EKVX NSCLC was > 100 µM throughout. For the same compound, in the test on NCI-H23 lung, the TGI is > 100 µM.
On to `COc1cc2c(cc1OC)[C@@H](Nc1ccc(F)cc1)C1COC(=O)[C@@H]1C2c1cc(OC)c(O)c(OC)c1` (stereo not given in full), for which the TGI in the test with OVCAR-5 ovarian was > 100 µM; with RXF 393 renal, 71.8 µM; in the test with NCI-H522 lung, 18.9 µM; in the test on OVCAR-4 ovarian, > 85.8 µM; with HCC-2998 colon it was 9.9 µM; in the test on EKVX NSCLC it was > 100 µM. Moreover, the TGI came out at 1.64 µM in the test on NCI-H226 lung and 18.6 µM in the test with NCI-H23 lung.
Take `CCc1cccc(C)c1NC(=O)C1=C(C)NC(C)=C(C(=O)Nc2c(C)cccc2CC)C1c1ccc2c(c1)OCO2`: the TGI in the test on OVCAR-5 ovarian came out at 44.5 µM; with RXF 393 renal, 27.2 µM; in the test on NCI-H522 lung, 30.1 µM; in the test on OVCAR-4 ovarian, 66.1 µM; in the test on HCC-2998 colon, 33.8 µM; in the test on EKVX NSCLC, 58.6 µM. The figures for the TGI with NCI-H226 lung and with NCI-H23 lung were 49.5 µM and 31.4 µM, respectively.
As to `CCCN(CCC)C(=O)C(=O)c1c(N)[nH]n(-c2ccccc2)c1=O`, the TGI with OVCAR-5 ovarian, in the test with NCI-H522 lung, in the test with OVCAR-4 ovarian, in the test with HCC-2998 colon, in the test with EKVX NSCLC and with NCI-H226 lung was > 100 µM throughout. The TGI in the test on NCI-H23 lung was > 100 µM.
With `COc1ccc(COC2CC(OC)OC(C)C2OC(=O)c2ccccc2)cc1` (stereo not given), the TGI is > 94.7 µM with OVCAR-5 ovarian; > 96.6 µM in the test on RXF 393 renal; > 93.5 µM with NCI-H522 lung; > 100 µM with OVCAR-4 ovarian; > 100 µM with HCC-2998 colon; > 100 µM in the test with EKVX NSCLC. The TGI with NCI-H226 lung is 65.9 µM; in the test with NCI-H23 lung, > 92.6 µM.
In the case of `CNC(=O)OCc1c2ccncc2c(C)c2c1[nH]c1ccc(OC)cc12`, the TGI in the test with OVCAR-5 ovarian is 0.808 µM; with NCI-H522 lung it was 1.13 µM; in the test on OVCAR-4 ovarian, 1.13 µM; in the test on HCC-2998 colon, 1.02 µM; with EKVX NSCLC, > 100 µM; in the test with NCI-H226 lung, 0.784 µM.
`COc1cccc(NC(=O)CC(=O)N2N=C(n3ccc4ccccc43)CC2c2ccccc2)c1` (stereo not given): the TGI with OVCAR-5 ovarian, in the test on RXF 393 renal, with NCI-H522 lung, in the test with OVCAR-4 ovarian, with HCC-2998 colon and in the test with EKVX NSCLC was > 100 µM in each case. In addition, in the test with NCI-H23 lung, the TGI was > 100 µM.
On to `COc1ccc(C(=O)/C=C/c2cccc(Nc3ccnc4cc(Cl)ccc34)c2)cc1`, for which the GI50 – broadly, the concentration that inhibits growth by half – in the test with OVCAR-5 ovarian was 2.6 µM; in the test with RXF 393 renal it was 1.82 µM; in the test on DU-145 prostate, 2.45 µM; in the test with NCI-H522 lung, 1.88 µM; with EKVX NSCLC, 1.75 µM; with NCI-H226 lung it was 1.78 µM. Moreover, the GI50 in the test on NCI-H23 lung was 1.49 µM. In addition, the TGI in the test with OVCAR-5 ovarian was > 100 µM; in the test on RXF 393 renal it was 5.17 µM; in the test with DU-145 prostate, > 100 µM; in the test on NCI-H522 lung, > 100 µM; in the test with EKVX NSCLC it was > 100 µM; with NCI-H226 lung it was > 100 µM. For the same compound, the TGI in the test on NCI-H23 lung was > 100 µM.
Consider `CCOc1ccc(NC(=O)C(=O)C(C(=O)c2ccc3ccccc3c2)C2OC(=O)c3ccccc32)cc1` (stereo not given), for which the TGI was 84.9 µM in the test with OVCAR-5 ovarian; 31.6 µM in the test with NCI-H522 lung; 44.5 µM with OVCAR-4 ovarian; 23.2 µM with HCC-2998 colon; > 100 µM in the test with EKVX NSCLC; 13.5 µM in the test with NCI-H226 lung. The same compound came in with a TGI in the test on NCI-H23 lung of 33 µM.
As to `C[C@]12CCC(=O)CC1CCCC2=O` (stereo not given in full), the TGI in the test on RXF 393 renal, in the test on NCI-H522 lung, in the test on OVCAR-4 ovarian, in the test on HCC-2998 colon, with EKVX NSCLC and in the test on NCI-H23 lung was > 100 µM in each case.
As to `CC(=O)[CH-]C(=O)c1ccccc1.CC(=O)[CH-]C(=O)c1ccccc1.CC(=O)[CH-]C(=O)c1ccccc1.[In+3]`, the GI50 with OVCAR-5 ovarian was 42.7 µM; in the test on RXF 393 renal, 48.3 µM; in the test on NCI-H522 lung, 21.8 µM; in the test on OVCAR-4 ovarian it was 78.8 µM; in the test with NCI-H226 lung, 24.7 µM; in the test on NCI-H23 lung, 30.9 µM. For the same compound, the TGI is > 100 µM with OVCAR-5 ovarian; > 100 µM in the test on RXF 393 renal; 59.8 µM in the test on NCI-H522 lung; > 100 µM in the test with OVCAR-4 ovarian; 84.3 µM in the test with NCI-H226 lung; > 100 µM in the test on NCI-H23 lung.
Consider `C[CH2][Sn]([CH2]C)([O]C(=O)c1ccccc1F)[O][Sn]([CH2]C)([CH2]C)[O]C(=O)c1ccccc1F`, for which the GI50 in the test with OVCAR-5 ovarian is > 49.3 µM; in the test on RXF 393 renal, 14.1 µM; with NCI-H522 lung it was 1.24 µM; in the test with OVCAR-4 ovarian, > 51.7 µM; with HCC-2998 colon it was > 43.7 µM; in the test on EKVX NSCLC it was 33.9 µM. For the same compound, the GI50 was 20.2 µM with NCI-H226 lung and 15.8 µM in the test on NCI-H23 lung. The TGI in the test with OVCAR-5 ovarian is > 71.4 µM; with RXF 393 renal, 27.9 µM; with NCI-H522 lung, 2.61 µM; in the test on OVCAR-4 ovarian, > 82.8 µM; with HCC-2998 colon it was > 73.8 µM; with EKVX NSCLC, > 100 µM. For the same compound, the TGI was determined as 37.6 µM in the test with NCI-H226 lung and 33.6 µM in the test on NCI-H23 lung.
As for `CCOC(=O)/C(O)=C(/C(=O)OC)c1ccc(Cl)cc1`, the TGI with OVCAR-5 ovarian, with OVCAR-4 ovarian, with HCC-2998 colon, in the test on EKVX NSCLC and with NCI-H23 lung was > 100 µM throughout.
As for `CCN(CC)c1oc(N(CC)CC)c(C(=O)Nc2ccccn2)c(=O)c1C(C)=O`, the TGI with OVCAR-5 ovarian, in the test with NCI-H522 lung, in the test on EKVX NSCLC, in the test on NCI-H226 lung and in the test with NCI-H23 lung was > 100 µM each time.
Consider `CN(C)C(=O)c1ccc([N+](=O)[O-])cc1`, for which the TGI with OVCAR-5 ovarian, in the test on RXF 393 renal, with NCI-H522 lung, with OVCAR-4 ovarian, in the test on HCC-2998 colon and in the test with EKVX NSCLC was > 100 µM in each case. Moreover, the TGI in the test with NCI-H226 lung and with NCI-H23 lung was > 100 µM in each case.
Take `COc1ccc(CC2(Cc3ccc(OC)cc3)CCOC2=O)cc1`: the TGI in the test with OVCAR-5 ovarian, with NCI-H522 lung, in the test on OVCAR-4 ovarian, in the test on EKVX NSCLC, with NCI-H226 lung and with NCI-H23 lung was > 100 µM in each case.
In the case of `CC(=O)O[C@H]1CCC2[C@@H]3CCC4c5nonc5CC[C@]4(C)C3CC[C@@]21C` (stereo not given in full), the GI50 with OVCAR-5 ovarian, in the test on HCC-2998 colon and in the test with EKVX NSCLC was > 100 µM each time. In addition, the TGI is > 100 µM in the test on OVCAR-5 ovarian; > 10 µM in the test with RXF 393 renal; > 10 µM with NCI-H522 lung; > 10 µM in the test with OVCAR-4 ovarian; > 100 µM in the test with HCC-2998 colon; > 100 µM with EKVX NSCLC. Also, the TGI in the test on NCI-H226 lung and in the test with NCI-H23 lung was > 10 µM each time.
For the compound `COC(=O)C(CC1=C(O)Nc2ccccc2N1)/C(=N/NC(N)=O)C(=O)Nc1ccccc1C` (stereo not given), the TGI with OVCAR-5 ovarian was > 100 µM; in the test with RXF 393 renal, > 100 µM; in the test on NCI-H522 lung, 33.9 µM; in the test on OVCAR-4 ovarian it was > 100 µM; in the test on HCC-2998 colon, > 100 µM; with EKVX NSCLC, > 100 µM. In addition, the TGI with NCI-H226 lung and in the test with NCI-H23 lung was > 100 µM throughout.
Take `CCc1ccccc1NC(=O)/C(N=O)=C(/C)O`: the TGI in the test on RXF 393 renal, in the test on NCI-H522 lung, with OVCAR-4 ovarian, with HCC-2998 colon, in the test with EKVX NSCLC and with NCI-H226 lung was > 100 µM in each case. In addition, in the test with NCI-H23 lung, the TGI was > 100 µM.
`O=C(NC(=Nc1ccccc1)SCCSC(=Nc1ccccc1)NC(=O)c1cccs1)c1cccs1`: the TGI with OVCAR-5 ovarian was > 100 µM; with RXF 393 renal it was 68.9 µM; with NCI-H522 lung, 63.6 µM; in the test on OVCAR-4 ovarian, > 100 µM; in the test with HCC-2998 colon, > 100 µM; with EKVX NSCLC, > 100 µM. Moreover, the TGI with NCI-H226 lung and with NCI-H23 lung was > 100 µM each time.
